According to patent publication US20260008783A1, “MODULATORS OF FSHR AND USES THEREOF” (Celmatix Inc., priority 2022, published 2026):

Molecular target: T1, Follicle Stimulating Hormone Receptor (FSHR) (Homo sapiens, UniProt P23945)
T1 construct: HA (N); expressed in transfected cells; host or cells: CHO-K1, transient transfection, pHM6 vector (CMV promoter)
T1 sequence (P23945 18-695): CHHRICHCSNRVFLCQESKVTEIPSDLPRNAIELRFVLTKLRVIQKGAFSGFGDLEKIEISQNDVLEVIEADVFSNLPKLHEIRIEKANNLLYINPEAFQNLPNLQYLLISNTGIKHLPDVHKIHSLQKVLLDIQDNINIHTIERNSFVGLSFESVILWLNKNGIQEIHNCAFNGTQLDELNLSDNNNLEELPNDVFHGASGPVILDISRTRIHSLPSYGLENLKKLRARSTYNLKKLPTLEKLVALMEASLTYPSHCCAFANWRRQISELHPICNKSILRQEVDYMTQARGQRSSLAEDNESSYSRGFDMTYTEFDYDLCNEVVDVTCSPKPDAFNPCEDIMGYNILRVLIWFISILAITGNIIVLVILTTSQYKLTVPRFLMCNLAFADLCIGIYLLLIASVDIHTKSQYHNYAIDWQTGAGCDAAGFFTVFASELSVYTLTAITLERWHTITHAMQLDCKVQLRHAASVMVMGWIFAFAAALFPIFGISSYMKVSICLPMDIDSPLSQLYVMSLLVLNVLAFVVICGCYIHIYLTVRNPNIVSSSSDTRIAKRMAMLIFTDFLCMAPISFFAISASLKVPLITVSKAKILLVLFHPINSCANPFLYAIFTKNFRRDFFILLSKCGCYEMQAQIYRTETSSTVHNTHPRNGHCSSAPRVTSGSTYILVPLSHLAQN
Test: HTRF cAMP agonist assay, FSHR, transiently transfected CHO-K1 cells
Type: cell-based
Conditions: CHO-K1 cells transiently expressing human FSHR, read-out: IC50 FSHR LANCE CAMP

| IC50 [nM] | Compound |
| --- | --- |
| 75.8 | COc1cc2c(cc1-c1cncc(C(N)=O)c1)-c1c(c(C(=O)N3CCNC(=O)C3(C)C)nn1-c1ccccn1)CC2 [Compound 15-01, 5-[3-(2,2-dimethyl-3-oxo-piperazine-1-carbonyl)-7-methoxy-1-(2-pyridyl)-4,5-dihydrobenzo[g]indazol-8-yl]pyridine-3-carboxamide] |
| 477 | COc1cc2c(cc1-c1cccnc1)-c1c(c(C(=O)N3CCNC(=O)C3(C)C)nn1-c1ccccn1)CC2 [Compound 15-02] |
| 31.1 | COc1cc2c(cc1-c1cccnc1)-c1c(c(C(=O)N3CCNC(=O)C3(C)C)nn1-c1cc(Cl)cc(Cl)c1)CC2 [Compound 15-03, 4-[1-(3,5-dichlorophenyl)-7-methoxy-8-(3-pyridyl)-4,5-dihydrobenzo[g]indazole-3-carbonyl]-3,3-dimethyl-piperazin-2-one] |
| 381 | CC1(C)C(=O)NCCN1C(=O)c1nn(-c2cc(Cl)cc(Cl)c2)c2c1CCc1ccc(-c3cncc(C(N)=O)c3)cc1-2 [Compound 15-04, 5-[1-(3,5-dichlorophenyl)-3-(2,2-dimethyl-3-oxo-piperazine-1-carbonyl)-4,5-dihydrobenzo[g]indazol-8-yl]pyridine-3-carboxamide] |
| 363 | COc1cc2c(cc1-c1cncc(C(N)=O)c1)-c1c(c(C(=O)N3CCNC(=O)C3(C)C)nn1-c1ccncn1)CC2 [Compound 15-05, 5-(3-(2,2-dimethyl-3-oxopiperazine-1-carbonyl)-7-methoxy-1-(pyrimidin-4-yl)-4,5-dihydro-1H-benzo[g]indazol-8-yl)nicotinamide] |
| 3620 | COc1cc2c(cc1-c1cncc(C(N)=O)c1)-c1c(c(C(=O)N3CCNC(=O)C3(C)C)nn1-c1cccnn1)CC2 [Compound 15-06] |
| 7.32 | COc1cc2c(cc1-c1cccnc1)-c1c(c(C(=O)N3CCOCC3(C)C)nn1-c1cc(F)cc(F)c1)CO2 [Compound 15-08] |
| 370 | COc1cc2c(cc1-c1ccncc1)-c1c(c(C(=O)N3CCOCC3(C)C)nn1-c1cc(F)cc(F)c1)CC2 [Compound 15-09, [1-(3,5-difluorophenyl)-7-methoxy-8-(4-pyridyl)-4,5-dihydrobenzo[g]indazol-3-yl]-(3,3-dimethylmorpholin-4-yl)methanone] |
| 21.1 | COc1cc2c(cc1-c1ccc(=N)[nH]c1)-c1c(c(C(=O)N3CCOCC3(C)C)nn1-c1cc(F)cc(F)c1)CC2 [Compound 15-10] |
